Source: patent US20240293416A1, “TREATMENT OF LIVER DISORDERS WITH A THR-ß AGONIST” (Terns Pharmaceuticals, Inc., priority 2021, published 2024)
“Also recorded” adds a separate entry of the source.

Columns and labels:
[1] = Capsule stability studies under stressed conditions; format: physicochemical
Procedure: A direct encapsulation (DE) formulation study of Compound 1 was carried out. This work included DE process development for the preparation of 1 mg, 3 mg, 10 mg, 50 mg and placebo capsules by a semi-automatic or automatic capsule filling machine. Ingredients, ratios, filling weight, flowability and uniformity of the formulation were all evaluated. The developed processes are suitable for the manufacture of Compound 1 drug products for future clinical studies.
Silica gel desiccant was subsequently proposed for the packaging and proven to be effective to mitigate the formation of the impurity.
The effectiveness of the silica gel desiccant in minimizing the degradation was evaluated through comparative stability studies with or without desiccant included in the primary packaging. […] Therefore, packaging with 1 g desiccant was determined to improve product quality and increase product shelf life.

[2] = Single ascending dose trial: plasma and urine pharmacokinetics; format: in vivo, human; settings: for fe (fraction of dose excreted in urine as unmodified Compound 1): fasted, n = 6, mean (% CV)
Procedure: (§1) A single-ascending dose clinical trial of Compound 1 (potassium salt) was performed.
(§2) PK parameters were estimated via noncompartmental methods using Phoenix WinNonlink (Certara, LP, Princeton, NJ). Concentrations of serum pharmacodynamic (PD) biomarkers apolipoprotein B (Apo B) and sex hormone binding globulin (SHBG) were measured using an immunoassay and serum lipids were determined using spectrophotometry.

[3] = Multiple ascending dose trial: adverse event and safety monitoring; format: in vivo, human; settings: for AEs by relationship to drug: Not related / AEs by relationship to drug: Possibly related / AEs by relationship to drug: Related / AEs by relationship to drug: Unlikely related / Any AE, all CTCAE grades / Grade 1 / Grade 2 or higher / Serious AEs: N = 6
Procedure: (§3) A multiple-ascending dose clinical trial of Compound 1 was performed.

[4] = test system: SHBG, Apo B and serum lipids; experiment: Single ascending dose trial: serum PD biomarkers; format: in vivo, human; settings: for Apo B Change / SHBG Change: n = 6
Procedure: as §1, §2
PD sampling was performed pre-dose, and 48 hours and 72 hours post-dose. Percent change from baseline for PD markers were calculated using an ANCOVA model with percent change from baseline as dependent variable, treatment group as fixed effect, and baseline as covariate. Analyses used observed data only without imputation for missing data.

BCS classification = format: physicochemical
[5] = Multiple ascending doses in healthy subjects with elevated LDL-c: PK; format: in vivo, human; settings: 1, 3, 6 or 10 mg once daily for 14 days
From the text: (§4) Secondary Objectives: Evaluate the PK and PD of Compound 1 in healthy subjects with elevated LDL-c following multiple ascending doses of Compound 1.

[6] = Solubilizer compatibility in formulation study; format: physicochemical; settings: co-formulation
From the text: The level of SLS between 1.5% to 5.0% w/w was investigated.

[7] = test system: SHBG, LDL-c and other lipid parameters; experiment: Multiple ascending doses in healthy subjects with elevated LDL-c: PD markers; format: in vivo, human; settings: 1, 3, 6 or 10 mg once daily for 14 days
From the text: as §4

[8] = Food effect on PK performance in beagle dogs; format: in vivo; settings: 10 mg capsule, 5% SLS; fasted vs high fat fed dogs, n=3 per group
Procedure: To determine the food effect on PK performance, beagle dogs were divided into two groups (n=3 per group). For the fasted group, dogs were fasted overnight through 4-hours post dosing. For the fed group, dogs were fed high fat food 30 minutes prior to administration.

[9] = test system: SHBG, Apo B and serum lipids; experiment: Multiple ascending dose trial: serum PD biomarkers; format: in vivo, human
Procedure: as §3
(§5) (See Table 5, FIG. 7.) PK parameters were estimated via noncompartmental methods using Phoenix® WinNonlin® (Certara, LP, Princeton, NJ). Concentrations of serum pharmacodynamic (PD) biomarkers apolipoprotein B (Apo B) and sex hormone binding globulin (SHBG) were measured using an immunoassay and serum lipids were determined using spectrophotometry.
PD sampling was also performed. Percent change from baseline for PD markers were calculated using an ANCOVA model with percent change from baseline as dependent variable, treatment group as fixed effect, and baseline as covariate. Analyses used observed data only without imputation for missing data.

[10] = Multiple ascending dose trial: pharmacokinetics; format: in vivo, human
Procedure: as §3, §5

[11] = DIO-GAN NASH mice: trough plasma compound levels by LC-MS/MS; format: in vivo, C57BL/6JRj mice; settings: plasma 21-24 hours post final dose
Procedure: Terminal plasma samples were harvested by cardiac puncture approximately 21-24 hours after the last administration of compound(s). Terminal plasma samples were analyzed by high resolution LC-MS/MS using a Triple Quad 6500+ instrument. 20 μL of plasma sample was mixed with 200 μL of internal standard solution (100 ng/ml Labetalol+100 ng/ml Tolbutamide in acetonitrile), vortexed, and centrifuged at 4,000 rpm for 15 min at 4° C. […] The internal standard (retention time: 0.76 min), was used for quantification of the glucuronide metabolite of Compound 2 (retention time: 0.77 min). Calibration curves (1-3000 ng/mL) were generated in a matrix of mouse plasma (pooled vehicle control) for each analyte.
Terminal plasma samples collected by cardiac puncture 21-24 hours post final treatment dose (i.e., trough) were analyzed by LC-MS/MS. Values represent mean and standard deviation (SD). ND, not determined.

[12] = 14-day daily dosing up to 10 mg

With `N#Cc1nn(-c2cc(Cl)c(Oc3n[nH]c(=O)c4ccccc34)c(Cl)c2)c(=O)[nH]c1=O` [Compound 1, 2-(3,5-dichloro-4-((4-oxo-3,4-dihydrophthalazin-1-yl)oxy)phenyl)-3,5-dioxo-2,3,4,5-tetrahydro-1,2,4-triazine-6-nitrile] the capsule short stability ([1]; 3 mg strength capsule, 60° C./75% RH, two weeks) was “a degradation impurity formed”, the “effect of desiccant packaging on degradation impurities” value ([1]; 1, 3, 10 and 50 mg capsules, 40° C./75% RH) was “significantly retarded the formation of degradation impurities” and the renal excretion ([2]; all single doses) was “Minimal renal excretion”. The “fe (fraction of dose excreted in urine as unmodified Compound 1)” value ([2]; single 3 mg dose) was 2.95 (62) % dose, urine, the “fe (fraction of dose excreted in urine as unmodified Compound 1)” value ([2]; single 10 mg dose) was 2.05 (74) % dose, urine and the “fe (fraction of dose excreted in urine as unmodified Compound 1)” value ([2]; single 30 mg dose) was 1.78 (35) % dose, urine. For the same compound, the “fe (fraction of dose excreted in urine as unmodified Compound 1)” value ([2]; single 60 mg dose) was 1.53 (53) % dose, urine, the “dose proportionality of exposures (AUC, Cmax)” value ([2]; single doses 3-60 mg) was “approximately dose-proportional; also recorded: linear and dose-proportional plasma exposures with low variability” and the “AEs by relationship to drug: Not related” value ([3]; 3 mg once daily for 14 days) was 1 (16.7%) n (%). The “AEs by relationship to drug: Possibly related” value (from here on “AEs … Possibly related”) ([3]; 3 mg once daily for 14 days) was 0 n (%), the “AEs by relationship to drug: Related” value ([3]; 3 mg once daily for 14 days) was 0 n (%) and the “AEs by relationship to drug: Unlikely related” value (“AEs … Unlikely related” for short) ([3]; 3 mg once daily for 14 days) was 0 n (%). The “Any AE, all CTCAE grades” value ([3]; 3 mg once daily for 14 days) was 1 (16.7%) n (%), the “Grade 1” value ([3]; 3 mg once daily for 14 days) was 1 (16.7%) n (%) and the “Grade 2 or higher” value ([3]; 3 mg once daily for 14 days) was 0 n (%). The “Serious AEs” value ([3]; 3 mg once daily for 14 days) was 0 n (%), the “AEs by relationship to drug: Not related” value ([3]; 6 mg once daily for 14 days) was 0 n (%) and the “AEs … Possibly related” value ([3]; 6 mg once daily for 14 days) was 1 (16.7%) n (%). The “AEs by relationship to drug: Related” value ([3]; 6 mg once daily for 14 days) was 0 n (%), the “AEs … Unlikely related” value ([3]; 6 mg once daily for 14 days) was 0 n (%) and the “Any AE, all CTCAE grades” value ([3]; 6 mg once daily for 14 days) was 1 (16.7%) n (%). The “Grade 1” value ([3]; 6 mg once daily for 14 days) was 1 (16.7%) n (%), the “Grade 2 or higher” value ([3]; 6 mg once daily for 14 days) was 0 n (%) and the “Serious AEs” value ([3]; 6 mg once daily for 14 days) was 0 n (%). The “AEs by relationship to drug: Not related” value ([3]; 10 mg once daily for 14 days) was 2 (33.3%) n (%), the “AEs … Possibly related” value ([3]; 10 mg once daily for 14 days) was 0 n (%) and the “AEs by relationship to drug: Related” value ([3]; 10 mg once daily for 14 days) was 0 n (%). For the same compound, the “AEs … Unlikely related” value ([3]; 10 mg once daily for 14 days) was 0 n (%), the “Any AE, all CTCAE grades” value ([3]; 10 mg once daily for 14 days) was 2 (33.3%) n (%) and the “Grade 1” value ([3]; 10 mg once daily for 14 days) was 2 (33.3%) n (%). The “Grade 2 or higher” value ([3]; 10 mg once daily for 14 days) was 0 n (%), the “Serious AEs” value ([3]; 10 mg once daily for 14 days) was 0 n (%) and the “ALT increase to ≥2×ULN” value ([3]; 14-day daily dosing) was “no treated subject”. For the same compound, the “ECGs, cardiac biomarkers, or other clinical lab tests” value ([3]; 14-day daily dosing) was “No remarkable changes”, the “TSH or free T3” value ([3]; 14-day daily dosing) was “without clear change” and the “free T4” value ([3]; 14-day daily dosing) was “declined in dose-dependent fashion”. For the same compound, the free testosterone ([3]; 14-day daily dosing) was “no significant change in free levels”, the total testosterone ([3]; 14-day daily dosing) was “Dose-dependent total testosterone increases” and the “Heart rate and blood pressure” value [3, 12] was “remained stable throughout the study”. The “grade of AEs” value [3, 12] was “Grade 1”, the tolerability [3, 12] was “overall well-tolerated” and the GGT ([3]; 14-day daily dosing, values remaining below ULN) was “Dose-dependent GGT increases”. The “Apo B Change” value ([4]; Day 3 after single 3 mg dose) was −1.5%, the “SHBG Change” value ([4]; Day 3 after single 3 mg dose) was 0.20 nmol/L and the “Apo B Change” value ([4]; Day 3 after single 10 mg dose) was −5.6%. For the same compound, the “SHBG Change” value ([4]; Day 3 after single 30 mg dose) was 6.0 nmol/L, the “LDL-c, total cholesterol, and Apo-B” value ([4]; Day 3 following single dose, similar on Day 4) was “Dose-dependent decreases” and the triglyceride levels ([4]; after a single dose) was “No significant changes”. The “SHBG relative to placebo” value ([4]; single doses of ≥10 mg) was “Significant increases”, the BCS classification (BCS classification) was “BCS Class IV” and the “PK dose proportionality and variability” value [5] was “dose-proportional PK with low variability”. The “compatibility with sodium lauryl sulfate (SLS)” value [6] was “good compatibility; also recorded: minimal or no degradation”, the “effect of ionic surfactants (e.g., SLS) on solubility” value [6] was “increased the aqueous solubility; also recorded: dramatic enhancement of solubility at all pH levels” and the SHBG [7] was “increased”. For the same compound, the “circulating atherogenic lipid levels including LDL-c, Apo B, total cholesterol, and triglycerides” value [7] was “significant decreases”, the “food effect on Tmax” value [8] was “delayed” and the “food effect on plasma exposure” value [8] was “did not have an impact on the plasma exposure”. The “total cholesterol, LDL-c, Apo B, and triglycerides” value ([9]; all dose levels) was “Reductions”, the HDL-c ([9]; day 15) was “did not significantly change” and the “total cholesterol, LDL-c, Apo B, and triglycerides” value ([9]; day 15, 10 mg dose cohort) was “significant reductions”. The SHBG ([9]; multiple doses, even at 3 mg QD) was “significant and dose-dependent increases”, the t1/2 ([10]; Day 14, 6 mg QD, N = 6, median) was 15.8 h and the “oral bioavailability and PK variability” value ([10]; multiple doses) was “good oral bioavailability with low PK variability”.

With `Cn1cc(C(=O)O)c2ccc(C3CCC(OCc4c(-c5c(Cl)cccc5Cl)noc4C4CC4)CC3)cc21` (stereo not drawn) [Compound 2] the “Mean trough analyte concentration (SD)” value ([11]; treatment group Combo-high, n = 14) was 3.3 (1.8) ng/mL, the “Mean trough analyte concentration (SD)” value ([11]; treatment group Combo-med, n = 16) was 5.8 (3.5) ng/mL and the “Mean trough analyte concentration (SD)” value ([11]; treatment group Compound 2 (10 mg/kg), n = 16) was 7.4 (3.8) ng/mL.
